From patent US20220274979A1 (Bayer Pharma Aktiengesellschaft, priority 2018, published 2022) come the findings set out here.

Test [1] deals with T1, hK-RasG12C - hSOS1 interaction (Homo sapiens, UniProt Q07889).
T1 construct: hSOS1 (amino acid 564-1049); made in house; host or cells: E. coli BL21 (DE3)
T1 sequence (Q07889 with tags, fused parts or gaps): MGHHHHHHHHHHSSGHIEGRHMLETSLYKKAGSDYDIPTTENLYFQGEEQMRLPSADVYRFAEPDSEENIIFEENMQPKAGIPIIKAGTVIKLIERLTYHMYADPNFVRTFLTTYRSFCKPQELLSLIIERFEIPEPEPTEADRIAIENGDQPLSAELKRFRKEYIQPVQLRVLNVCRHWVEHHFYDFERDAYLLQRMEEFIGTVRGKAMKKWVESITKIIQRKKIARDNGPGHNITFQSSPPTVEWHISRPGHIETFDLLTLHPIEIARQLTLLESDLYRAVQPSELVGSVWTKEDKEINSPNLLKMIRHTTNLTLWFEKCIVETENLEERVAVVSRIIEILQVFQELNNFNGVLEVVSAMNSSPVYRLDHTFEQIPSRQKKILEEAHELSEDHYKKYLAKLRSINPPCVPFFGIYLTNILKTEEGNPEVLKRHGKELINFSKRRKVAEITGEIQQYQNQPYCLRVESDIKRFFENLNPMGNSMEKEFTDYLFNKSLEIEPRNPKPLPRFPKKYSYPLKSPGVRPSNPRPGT
The test is described as follows: Biochemical Assay 1: hK-RasG12C interaction assay with hSOS1 (HTRF). In kind it is binding. The following applies: for IC50: values expressed as IC50; for inhibition at 20 µM: read-out: Assay 1 (hKRAS, hSOS Interaction) activity (expressed as IC50, or as % inhibition at 20 μM). As to the method:
Biochemical Assay 1: hK-RasG12C Interaction Assay with hSOS1
This assay quantifies the equilibrium interaction of human SOS1 (hSOS1) with human K-Ras^G12C (hK-RasG12C). Detection of the interaction is achieved by measuring homogenous time-resolved fluorescence resonance energy transfer (HTRF) from antiGST-Europium (FRET donor) bound to GST-K-RasG12C to anti-6His-XL665 bound to His-tagged hSOS1 (FRET-acceptor).
The assay buffer contained 5 mM HEPES pH 7.4 (Applichem), 150 mM NaCl (Sigma), 10 mM EDTA (Promega), 1 mM DTT (Thermofisher), 0.05% BSA Fraction V, pH 7.0, (ICN Biomedicals), 0.0025% (v/v) Igepal (Sigma) and 100 mM KF (FLUKA).
Concentrations of protein batches used were optimized to be within the linear range of the HTRF signal. A Ras working solution was prepared in assay buffer containing typically 10 nM GST-hK-RasG12C and 2 nM antiGST-Eu(K) (Cisbio, France). A SOS1 working solution was prepared in assay buffer containing typically 20 nM His-hSOS1 and 10 nM anti-6His-XL665 (Cisbio, France). An inhibitor control solution was prepared in assay buffer containing 10 nM anti-6His-XL665 without hSOS1.
(§1) Fifty nl of a 100-fold concentrated solution of the test compound in DMSO were transferred into a black microtiter test plate (384 or 1536, Greiner Bio-One, Germany) For this, either a Hummingbird liquid handler (Digilab, Mass., USA) or an Echo acoustic system (Labcyte, Calif., USA) was used.
All steps of the assay were performed at 20° C. A volume of 2.5 μl of the Ras working solution was added to all wells of the test plate using a Multidrop dispenser (Thermo Labsystems). After […] preincubation, 2.5 μl of the SOS1 working solution were added to all wells except for those wells at the side of the test plate that were subsequently filled with 2.5 μl of the inhibitor control solution. After […] incubation the fluorescence was measured with a Pherastar (BMG, Germany) using the HTRF module (excitation 337 nm, emission 1:620 nm, emission 2:665 nm).
(§2) IC50 values were calculated by 4-Parameter fitting using a commercial software package (Genedata Screener, Switzerland).

In test [2] the target is T2, hSOS1 (hSOS1-mediated loading of hK-RasG12C-GDP) (Homo sapiens, UniProt Q07889).
T2 construct: hSOS1 (amino acid 564-1049); made in house; host or cells: E. coli BL21 (DE3)
T2 sequence (Q07889 with tags, fused parts or gaps): T1 sequence (Q07889 with tags, fused parts or gaps)
Nature of the test: Biochemical Assay 3: hK-RasG12C activation assay by hSOS1 (loading with fluorescent GTP analog, HTRF). The following applies: no GTP.
Description: Biochemical Assay 3: hK-RasG12C Activation Assay by hSOS1
K-Ras is a small GTPase that can bind GDP and GTP. The guanine nucleotide exchange factor SOS1 catalyzes the activation of K-Ras by promoting the exchange of GDP to GTP. SOS1 binds to K-Ras-GDP thereby opening the GDP-binding pocket to facilitate GDP release. Rebinding of excess nucleotide leads to dissociation of the K-Ras-SOS1 intermediate complex leaving K-Ras loaded with the nucleotide.
This assay quantifies human SOS1-(hSOS1-)mediated loading of human K-Ras^G12C-GDP (hK-RasG12C-GDP) with a fluorescent GTP-analog. Detection of successful loading is achieved by measuring homogenous time-resolved fluorescence resonance energy transfer (HTRF) from antiGST-Terbium (FRET donor) bound to GST-hK-RasG12C (see below) to the loaded fluorescent GTP analog (FRET-acceptor).
The fluorescent GTP-analog EDA-GTP-Dy647P1 (2′/3′-O-(2-Aminoethyl-carbamoyl)-guanosine-5′-triphosphate labelled with Dy647P1 (Dyomics GmbH, Germany)) was synthesized by Jena Biosciences GmbH (Germany) and supplied as a 1 mM aqueous solution.
The assay buffer contained 10 mM HEPES pH 7.4 (Applichem), 150 mM NaCl (Sigma), 5 mM MgCl2 (Sigma), 1 mM DTT (Thermofisher), 0.05% BSA Fraction V, pH 7.0, (ICN Biomedicals), 0.0025% (v/v) Igepal (Sigma).
Concentrations of protein batches used were optimized to be within the linear range of the HTRF signal. A hRas working solution was prepared in assay buffer containing typically 100 nM GST-hK-RasG12C and 2 nM antiGST-Tb (Cisbio, France). A hSOS1 working solution was prepared in assay buffer containing typically 20 nM hSOS1 and 200 nM EDA-GTP-Dy647P1. An inhibitor control solution was prepared in assay buffer containing 200 nM EDA-GTP-Dy647P1 without hSOS1.
as §1
All steps of the assay were performed at 20° C. A volume of 2.5 μl of the hRas working solution was added to all wells of the test plate using a Multidrop dispenser (Thermo Labsystems). After 10 min. preincubation, 2.5 μl of the hSOS1 working solution were added to all wells except for those wells at the side of the test plate that were subsequently filled with 2.5 μl of the inhibitor control solution. After […] incubation the fluorescence was measured with a Pherastar (BMG, Germany) using the HTRF module (excitation 337 nm, emission 1: 620 nm, emission 2:665 nm).
as §2
Background: TR-FRET usually uses a lanthanide donor and a delayed reading to cut background.

On to `COc1cc2c(NC(C)c3cccc4nn(C)cc34)nc(C)nc2cn1` (stereo not drawn) [Example 17, 6-methoxy-2-methyl-N-[1-(2-methyl-2H-indazol-4-yl)ethyl]pyrido[3,4-d]pyrimidin-4-amine], for which the IC50 in test [1] is 9.19 µM; in test [2], at least 40 µM.
In the case of `CCOc1cc2c(N[C@H](C)c3ccc(C#N)cc3)nc(C)nc2cn1` [Example 18, 4-{(1R)-1-[(6-ethoxy-2-methylpyrido[3,4-d]pyrimidin-4-yl)amino]ethyl}benzonitrile], the IC50 in test [1] is 1.11 µM; in test [2], 4.54 µM.
Turning to `Cc1nc(N[C@H](C)c2cccc(Br)c2)c2nc(OCc3ccccc3)ncc2n1` [Example 20, 6-(benzyloxy)-N-[(1R)-1-(3-bromophenyl)ethyl]-2-methylpyrimido[5,4-d]pyrimidin-4-amine], the inhibition at 20 µM in test [1] is 30%. Moreover, the IC50 in test [2] was at least 40 µM.
Consider `Cc1nc(N[C@H](C)c2cccc(Br)c2)c2nc(N(C)C)ncc2n1` [Example 21], for which the inhibition at 20 µM in test [1] was determined as 26.3%. In test [2], this compound showed an IC50 of at least 40 µM.
Take `Cc1nc(N[C@H](C)c2cccc(Br)c2)c2nc(N3CCOCC3)ncc2n1` [Example 22, N-[(1R)-1-(3-bromophenyl)ethyl]-2-methyl-6-(morpholin-4-yl)pyrimido[5,4-d]pyrimidin-4-amine]: the IC50 was 1.62 µM in test [1] and 12.5 µM in test [2].
As to `CCOc1ncc2nc(C)nc(N[C@H](C)c3cccc(Br)c3)c2n1` [Example 23, N-[(1R)-1-(3-bromophenyl)ethyl]-6-ethoxy-2-methylpyrimido[5,4-d]pyrimidin-4-amine], the IC50 in test [1] stood at 4.35 µM; in test [2], 3.28 µM.
The like results for `COc1ncc2nc(C)nc(N[C@H](C)c3cccc(Br)c3)c2n1` [Example 24, N-[(1R)-1-(3-bromophenyl)ethyl]-6-methoxy-2-methylpyrimido[5,4-d]pyrimidin-4-amine] were, in that order, 9.41 µM and above 20 µM.
Consider `Cc1nc(N[C@H](C)c2cccc(Br)c2)c2nc(Oc3ccccc3)ncc2n1` [Example 25, N-[(1R)-1-(3-bromophenyl)ethyl]-2-methyl-6-phenoxypyrimido[5,4-d]pyrimidin-4-amine], for which the inhibition at 20 µM in test [1] is 23.7%. Further, the IC50 in test [2] was above 20 µM.
Consider `COCCOc1ncc2nc(C)nc(N[C@H](C)c3cccc(Br)c3)c2n1` [Example 26, N-[(1R)-1-(3-bromophenyl)ethyl]-6-(2-methoxyethoxy)-2-methylpyrimido[5,4-d]pyrimidin-4-amine], for which the results for the IC50 in test [1] and in test [2] were 2.75 µM and above 20 µM, respectively.
Turning to `Cc1nc(N[C@H](C)c2cccc(Br)c2)c2nc(N3CCOCC3)ccc2n1` [Example 27, N-[(1R)-1-(3-bromophenyl)ethyl]-2-methyl-6-(morpholin-4-yl)pyrido[3,2-d]pyrimidin-4-amine], the IC50 in test [1] was determined as 2.58 µM; in test [2] it was 10.6 µM.
Take `COc1ccc2nc(C)nc(N[C@H](C)c3cccc(Br)c3)c2n1` [Example 28, N-[(1R)-1-(3-bromophenyl)ethyl]-6-methoxy-2-methylpyrido[3,2-d]pyrimidin-4-amine]: the inhibition at 20 µM in test [1] stood at 49.8%. In test [2], this compound yielded an IC50 above 20 µM.
For `CCOc1ccc2nc(C)nc(N[C@H](C)c3cccc(Br)c3)c2n1` [Example 29, N-[(1R)-1-(3-bromophenyl)ethyl]-6-ethoxy-2-methylpyrido[3,2-d]pyrimidin-4-amine], the figures for the IC50 in test [1] and in test [2] were 17.4 µM and above 20 µM, respectively.
Regarding `COCCOc1ccc2nc(C)nc(N[C@H](C)c3cccc(Br)c3)c2n1` [Example 30, N-[(1R)-1-(3-bromophenyl)ethyl]-6-(2-methoxyethoxy)-2-methylpyrido[3,2-d]pyrimidin-4-amine], the half-inhibitory concentration (IC50) was 5.43 µM in test [1] and at least 27.8 µM in test [2].
Take `Cc1nc(N[C@H](C)c2cccc(Br)c2)c2nc(N(C)C)ccc2n1` [Example 31]: the IC50 in test [1] is 17.7 µM; in test [2], above 20 µM.
For the compound `Cc1nc(N[C@H](C)c2cccc(Br)c2)c2nc(Oc3ccccc3)ccc2n1` [Example 32, N-[(1R)-1-(3-bromophenyl)ethyl]-2-methyl-6-phenoxypyrido[3,2-d]pyrimidin-4-amine], in test [1], the inhibition at 20 µM stood at 22.4%. For the same compound, in test [2], the 50% inhibitory concentration (IC50) was above 20 µM.
The like results for `Cc1nc(N[C@H](C)c2cccc(Br)c2)c2nc(OCc3ccccc3)ccc2n1` [Example 33, 6-(benzyloxy)-N-[(1R)-1-(3-bromophenyl)ethyl]-2-methylpyrido[3,2-d]pyrimidin-4-amine] were, in that order, 29.3% and above 20 µM.
On the same counts, the results for `Cc1nc(N[C@H](C)c2cccc(Br)c2)c2cc(F)ncc2n1` [Example 34, N-[(1R)-1-(3-bromophenyl)ethyl]-6-fluoro-2-methylpyrido[3,4-d]pyrimidin-4-amine] are 36.7% and above 20 µM.
Take `Cc1nc(NC(C)c2ccc(Br)s2)c2cc(F)ncc2n1` (stereo not drawn) [Example 35]: the inhibition at 20 µM in test [1] stood at 23.5%. Besides, in test [2], the IC50 is above 20 µM.
Regarding `CNCc1ccccc1-c1ccc(C(C)Nc2nc(C)nc3cnc(F)cc23)s1` (stereo not drawn) [Example 36, 6-fluoro-2-methyl-N-[1-(5-{2-[(methylamino)methyl]phenyl}thiophen-2-yl)ethyl]pyrido[3,4-d]pyrimidin-4-amine], the IC50 in test [1] was 9.03 µM; in test [2] it was above 20 µM.
`CNCc1ccccc1-c1ccc(C(C)Nc2nc(C)nc3cnc(Oc4ccc(N5CCCC5=O)cc4)cc23)s1` (stereo not drawn) [Example 38, 1-{4-[(2-methyl-4-{[1-(5-{2-[(methylamino)methyl]phenyl}thiophen-2-yl)ethyl]amino}pyrido[3,4-d]pyrimidin-6-yl)oxy]phenyl}pyrrolidin-2-one]: the half-maximal inhibitory concentration (IC50) in test [1] worked out at 0.218 µM; in test [2], 0.269 µM.
For `Cc1nc(N[C@H](C)c2cccc(Br)c2)c2cc(NCCN3CCOCC3)ncc2n1` [Example 39], the IC50 in test [1] came out at 0.876 µM; in test [2] it was 1.64 µM.

By IC50 is commonly meant the point on the concentration scale where inhibition reaches its midpoint. Low readings indicate inhibition by little substance, high ones a need for much substance. A word on the inhibition: it is the drop in the measured response relative to a control, in per cent.
